Starred links: 1 amine or outer side, 2 acyl side, 3 side chain; linkers in the order of their positions; H or OH if unused. Non-standard residues stand in square brackets, D forms with d. Residues, ends and D or L forms follow the SMILES beside them. *: point of attachment. NMeF = CN[C@@H](Cc1ccccc1)C(=O)O; NMeGABA = CN(CCCC(=O)[*:2])[*:1]; NMeI = CC[C@H](C)[C@H](NC)C(=O)O; NMeT = CN[C@H](C(=O)O)[C@@H](C)O; hPhe = N[C@@H](CCc1ccccc1)C(=O)O; NMeβAla = CN(CCC(=O)[*:2])[*:1]; NMeL = CN[C@@H](CC(C)C)C(=O)O; NMeV = CN[C@H](C(=O)O)C(C)C; d(β3hA) = C[C@@H](N)CC(=O)O; NMeAbu = CC[C@H](NC)C(=O)O; NMeA = CN[C@@H](C)C(=O)O; dNMeA = CN[C@H](C)C(=O)O; Sar = CNCC(=O)O; tBu = CC(C)(C)*
Legend:
[1] = Metabolic stability test: liver microsomal stability assay; assay type: in vitro ADME, mouse; conditions: mouse liver microsomes 0.5 mg protein/mL, compound 1 µM; for microsomal CLint at 1 µM: male, pH 7.4, presence of NADPH, read-out: Mouse Hepatic Microsome CLh,int NADPH(+); for Mouse Hepatic Microsome CLh,int NADPH(-): absence of NADPH
[2] = Membrane permeability test using Caco-2 cells with preincubation; assay type: in vitro ADME; conditions: Caco-2; preincubation 20 to 24 hours; Apical FaSSIF/HBSS pH 6.0, Basal HBSS 4% BSA pH 7.4; 180 minutes; read-out: Caco2 Papp
Caco-2 cells = experiment: as above; assay type: in vitro ADME; conditions: Caco-2 cells, preincubation 20 to 24 hours; apical FaSSIF/HBSS 1% DMSO pH 6.0, basal HBSS 4% BSA pH 7.4; basal sample at 180 minutes

Structure (SMILES) | microsomal CLint at 1 µM [1] [µL/min/mg] | Mouse Hepatic Microsome CLh,int NADPH(-) [1] [µL/min/mg Protein] | Papp A→B [2] [×10⁻⁶ cm/s] | Caco2 Papp (10^-6 cm/sec) (Caco-2 cells)
CC[C@H](C)[C@@H]1NC(=O)[C@H](Cc2ccccc2)N(C)C(=O)[C@H](C(C)C)NC(=O)[C@@H](C)N(C)C(=O)C[C@@H](C)NC(=O)[C@H](C(C)C)N(C)C(=O)[C@H](Cc2ccccc2)N(C)C(=O)[C@H](COC(C)(C)C)NC(=O)[C@H](CC(C)C)N(C)C(=O)[C@H](C)N(C)C(=O)[C@@H]2CCCN2C(=O)[C@H]([C@@H](C)O)NC(=O)[C@H](CC(C)C)N(C)C1=O [pd130] (cyclo(I[NMeL]TP[NMeA][NMeL]S(tBu)[NMeF][NMeV][d(β3hA)][dNMeA]V[NMeF])) | 22.7 | 6.8 | 3.88 | 3.88 10^-6 cm/sec
CC[C@H]1C(=O)N(C)[C@@H](C)C(=O)N(C)[C@@H](C(C)C)C(=O)N[C@H](C)CC(=O)N[C@H](C(C)C)C(=O)N(C)[C@@H](CC(C)C)C(=O)N[C@@H](CC(C)C)C(=O)N(C)[C@@H](C(C)C)C(=O)N(C)[C@@H](CC(C)C)C(=O)N(C)CC(=O)N[C@@H]([C@@H](C)O)C(=O)N(C)[C@@H](Cc2ccccc2)C(=O)N[C@@H](COC(C)(C)C)C(=O)N1C [pd131] (cyclo(L[NMeV][NMeL][Sar]T[NMeF]S(tBu)[NMeAbu][NMeA][NMeV][d(β3hA)][dV][NMeL])) | 17.8 | 13.5 | 2.18 | 2.18 10^-6 cm/sec
CC[C@H](C)[C@@H]1NC(=O)[C@H](C)N(C)C(=O)[C@H]([C@@H](C)O)N(C)C(=O)[C@H](CC(C)C)N(C)C(=O)[C@H](C(C)C)NC(=O)[C@H](Cc2ccccc2)N(C)C(=O)[C@H](Cc2ccccc2)N(C)C(=O)[C@H](C)NC(=O)[C@H](CC)N(C)C(=O)[C@H]([C@@H](C)CC)NC(=O)CCCN(C)C(=O)C[C@@H](C)NC(=O)[C@H](C(C)C)N(C)C1=O [pd132] (cyclo(A[NMeF][NMeF]V[NMeL][NMeT][NMeA]I[NMeV][d(β3hA)][NMeGABA]I[NMeAbu])) | 16.2 | 7.7 | 0.36 | 0.36 10^-6 cm/sec
CC[C@H](C)[C@@H]1NC(=O)[C@H](CCc2ccccc2)NC(=O)[C@H](CC(C)C)N(C)C(=O)[C@H](C)N(C)C(=O)[C@H](Cc2ccccc2)N(C)C(=O)[C@@H]2CCCN2C(=O)[C@H]([C@@H](C)CC)NC(=O)[C@H](CC(C)C)N(C)C(=O)CCN(C)C(=O)C[C@@H](C)NC(=O)[C@H](CC(C)C)N(C)C(=O)[C@H]([C@@H](C)O)NC(=O)[C@H](C)N(C)C1=O [pd133] (cyclo(I[NMeA]T[NMeL][d(β3hA)][NMeβAla][NMeL]IP[NMeF][NMeA][NMeL][hPhe])) | 25.6 | 23.6 | 0.53 | 0.53 10^-6 cm/sec

Second part, the molecule after the results:

microsomal CLint at 1 µM [1] [µL/min/mg] | Mouse Hepatic Microsome CLh,int NADPH(-) [1] [µL/min/mg Protein] | Papp A→B [2] [×10⁻⁶ cm/s] | Caco2 Papp (10^-6 cm/sec) (Caco-2 cells) | Structure (SMILES)
38.5 | 11.4 | 0.75 | 0.75 10^-6 cm/sec | CC[C@H](C)[C@@H]1NC(=O)[C@H](CC(C)C)N(C)C(=O)[C@H](C)N(C)C(=O)[C@H](C)N(C)C(=O)C[C@@H](C)NC(=O)[C@H](CC(C)C)NC(=O)[C@H](CC(C)C)N(C)C(=O)CN(C)C(=O)[C@H]([C@@H](C)O)NC(=O)[C@H]([C@@H](C)CC)N(C)C(=O)[C@H](CC(C)C)N(C)C(=O)[C@H](C(C)C)NC(=O)[C@H](Cc2ccccc2)N(C)C1=O [pd134] (cyclo(I[NMeF]V[NMeL][NMeI]T[Sar][NMeL]L[d(β3hA)][NMeA][NMeA][NMeL]))
27.2 | 28.8 | 0.53 | 0.53 10^-6 cm/sec | CC[C@H](C)[C@@H]1NC(=O)[C@@H]2CCCN2C(=O)[C@H](C(C)C)N(C)C(=O)[C@@H](C)N(C)C(=O)C[C@@H](C)NC(=O)[C@H](C(C)C)N(C)C(=O)[C@H](Cc2ccccc2)N(C)C(=O)[C@H](COC(C)(C)C)NC(=O)[C@H](CC(C)C)N(C)C(=O)[C@H](C)N(C)C(=O)[C@H](CC(C)C)N(C)C(=O)[C@H]([C@@H](C)O)NC(=O)[C@H](Cc2ccccc2)N(C)C1=O [pd136] (cyclo(I[NMeF]T[NMeL][NMeA][NMeL]S(tBu)[NMeF][NMeV][d(β3hA)][dNMeA][NMeV]P))
14.1 | 7.5 | 0.55 | 0.55 10^-6 cm/sec | CC[C@H](C)[C@@H]1NC(=O)[C@H](C)N(C)C(=O)CCCN(C)C(=O)C[C@@H](C)NC(=O)[C@H](C(C)C)N(C)C(=O)[C@H](CCc2ccccc2)NC(=O)[C@H](C)N(C)C(=O)[C@H]([C@@H](C)O)N(C)C(=O)[C@H](CC(C)C)N(C)C(=O)[C@H](C(C)C)NC(=O)[C@H](Cc2ccccc2)N(C)C(=O)[C@H](C)N(C)C(=O)[C@H](C(C)C)N(C)C1=O [pd137] (cyclo(I[NMeV][NMeA][NMeF]V[NMeL][NMeT][NMeA][hPhe][NMeV][d(β3hA)][NMeGABA][NMeA]))
